Assay [1] addresses T1, recombinant GC (Cerezyme) (Homo sapiens, UniProt P04062, R534H).
T1 construct: purchased Genzyme Therapeutics, Boston, USA
T1 sequence (P04062 40-536 R534H): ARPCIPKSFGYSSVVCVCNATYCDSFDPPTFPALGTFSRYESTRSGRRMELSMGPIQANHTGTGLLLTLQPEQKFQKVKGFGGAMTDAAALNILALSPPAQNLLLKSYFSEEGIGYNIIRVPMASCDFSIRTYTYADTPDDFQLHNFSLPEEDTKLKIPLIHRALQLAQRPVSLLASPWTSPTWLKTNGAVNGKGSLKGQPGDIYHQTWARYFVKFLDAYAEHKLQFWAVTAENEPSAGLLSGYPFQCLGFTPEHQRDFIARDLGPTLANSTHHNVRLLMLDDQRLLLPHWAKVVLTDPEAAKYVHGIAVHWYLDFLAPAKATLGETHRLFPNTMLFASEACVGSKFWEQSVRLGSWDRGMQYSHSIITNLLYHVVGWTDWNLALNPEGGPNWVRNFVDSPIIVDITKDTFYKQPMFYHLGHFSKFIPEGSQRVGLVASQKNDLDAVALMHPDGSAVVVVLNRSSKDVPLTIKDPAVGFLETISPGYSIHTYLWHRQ
Description: peptide pulldown of recombinant GC. The format is binding. The note with it: biotinylated peptide, tenfold molar amount, neutral pH, streptavidin beads. On the procedure: Expression plasmids of LIMP-2 and human GC constructs were generated as described previously (1). For Western blotting nitrocellulose or PVDF membranes were used. EndoH/PNGaseF digests were performed according to manufacturer's instructions (New England Biolabs, Ipswich, USA). For co-immunoprecipitation experiments magnetic agarose G beads (Thermo Fisher Scientific, Waltham, USA) were utilized. Immunofluorescence studies were performed in cells as previously described (1, 3). Cellular co-localization of two proteins was determined by the Pearson's Index (35). Enzyme activity assays of cell lysates or recombinant protein were measured at acid pH using absorbent and fluorescent artificial substrates. For peptide studies, peptides were N-terminally tagged with biotin. If not stated otherwise, recombinant enzyme was incubated with a tenfold higher molarity of peptides. Conditions for pulldown experiments were kept at neutral pH. Protein modelling, molecular analyses, graphics and animations were performed with the UCSF Chimera package.
All peptides were purchased from jpt Peptide Technologies (Berlin, GER). […] The concentration of the peptides as well as the recombinant proteins was determined spectroscopically (Nanodrop 2000c; Thermo Fisher Scientific, Waltham, USA). […]

The target in the next assay is T2, recombinant GC (Homo sapiens, UniProt P04062, R534H).
T2 construct: purchased Genzyme Therapeutics, Boston, USA
T2 sequence (P04062 40-536 R534H): T1 sequence (P04062 40-536 R534H)
The assay can be described thus: stabilization assay of recombinant GC at 37° C. The format is biochemical. The note with it: recombinant GC incubated with peptide at 37° C. On the procedure: Proteins were visualized by coomassie staining (CBB). […] See also FIG. 6.
To address the functional impact of the observed interaction between the helix 5 peptide and recombinant GC, we measured GC activity in the presence of a one- to tenfold molar excess of the helix 5 peptide. […] No effect on enzymatic activity after incubation with the helix 5 peptide or the LIMP-2 ectodomain could be found for recombinant α-mannosidase (LAMAN) further emphasizing the specificity of the helix 5 peptide on GC activity (FIG. 6E). […] To analyze if the increase in GC activity is due to stabilization of the enzyme, recombinant GC was incubated with the helix 5 and the control peptide at 37° C. and the activity of GC was measured at regular intervals (FIG. 3F).

“Biotin-Ttds-LREIIEAMLKAYQQKLFVTHTVDE [helix 5 peptide]”: the “co-precipitation of recombinant GC” value in assay [1] is “specifically co-precipitated”. On recombinant GC, the “GC enzymatic activity remaining at 72 hours” value is on record as “still displayed significant enzymatic activity”.

The values are drawn from patent US10286038B2, “Lysosome membrane protein 2 (LIMP-2) based peptides and related uses” (Northwestern University, priority 2016, dated 2019).
